EPA's ToxValDB 9.5

Assays:
Rattus norvegicus [1] = conditions: subchronic, oral, diet
Bird = conditions: reproductive, in ovo, M/F, White leghorn chicken, generation: F1
[2] = tested on: Crangonyx richmondensis ssp. laurentianus; conditions: whole body, Monoporeia affinis, parasite infection
Rattus norvegicus [3] = conditions: oral
Monkey = conditions: oral, capsule, Cynomolgus; for NOEL: short-term, duration: 29 days, blood: basophils + blood: eosinophils + blood: lymphocytes + blood: monocytes + blood: reticulocytes + blood: segmented neutrophils + blood…
Labeo boga = conditions: whole body, M/F
[4] = chronic, duration: 14 weeks, diet, M, Crl:CD(SD) BR, non-segmented neutrophils (N-SEG)
[5] = reproduction developmental, gavage, M/F, Sprague-Dawley, generation: F1, F1: IL-1beta mRNA level relative change: cortex (PND 0) + F1: IL-1beta mRNA level relative change: cortex (PND 21) + F1: IL-1beta mRNA level…
[6] = reproduction developmental, gavage, M/F, Sprague-Dawley, generation: F1, F1: TNFalpha mRNA level relative change: cortex (PND 0) + F1: TNFalpha mRNA level relative change: cortex (PND 21)
[7] = short-term, duration: 28 days, diet, F, Sprague-Dawley, spleen: spleen: relative weight + thymus: apoptotic cells in the thymic cortex + thymus: thymus: absolute weight + Total serum IgM level
[8] = short-term, duration: 28 days, diet, M, Sprague-Dawley, spleen: spleen: absolute weight + thymus: thymus: absolute weight
[9] = short-term, duration: 28 days, diet, M, Sprague-Dawley, thymus: apoptotic cells in the thymic cortex + thymus: apoptotic cells in the thymic medulla
[10] = chronic, duration: 26 weeks, M, lymphocyte count (%) (Day 182)

## O=S(=O)(O)C(F)(F)C(F)(F)C(F)(F)C(F)(F)C(F)(F)C(F)(F)C(F)(F)C(F)(F)F [Perfluorooctanesulfonic acid]
Rattus norvegicus [1]; duration: 90 days, M/F, CD, Deaths + Body Weight Changes: decrease + Food Consumption: decrease + Hematology: RBC decrease, HGB decrease, HCT decrease, WBC decrease, …
  NOAEL: < 2.88 mg/kg-day
Bird; F1: IgM and IgY antibody titer (SRBC) + F1: plasma lysozyme activity + F1: spleen: spleen: relative weight
  LOEL (mg ion/kg egg): 0.93
Bird; F1: IgM antibody titer (SRBC) + F1: IgY antibody titer (SRBC) + F1: lymph node: normalized bursa mass + F1: PHA skin test (DTH response) + …
  NOEL (mg ion/kg egg): 4.6
[2]; short-term, duration: 22 day, M/F
  NOEL: 0.2 mg/L
[2]; subchronic, duration: 5 week, F
  LOEL: 0.01 mg/L
Rattus norvegicus [3]; chronic, duration: 14 weeks, diet, F, Crl:CD(SD) BR, non-segmented neutrophils (N-SEG)
  NOEL: 1.56 mg/kg-day
Rattus norvegicus [3]; [4]
  LOEL: 1.33 mg/kg-day
  NOEL: 0.34 mg/kg-day
Rattus norvegicus [3]; chronic, duration: 104 weeks, diet, F, Crl:CD(SD) BR, blood: basophils + blood: eosinophils + blood: monocytes + blood: white blood cell count (WBC) + spleen: spleen: absolute weight (53 weeks…
  NOEL: 1.56 mg/kg-day
Rattus norvegicus [3]; chronic, duration: 104 weeks, diet, F, Crl:CD(SD) BR, blood: lymphocytes + blood: segmented neutrophils
  LOEL: 0.039 mg/kg-day
Rattus norvegicus [3]; chronic, duration: 104 weeks, diet, F, Crl:CD(SD) BR, spleen: spleen: absolute weight (14 weeks)
  NOEL: 0.39 mg/kg-day
Rattus norvegicus [3]; chronic, duration: 104 weeks, diet, F, Crl:CD(SD) BR, spleen: spleen: absolute weight (14 weeks) + spleen: spleen: relative weight (53 weeks)
  LOEL: 1.56 mg/kg-day
Rattus norvegicus [3]; chronic, duration: 104 weeks, diet, M, Crl:CD(SD) BR, blood: basophils + blood: eosinophils + blood: monocytes + blood: white blood cell count (WBC) + spleen: spleen: absolute weight (14 weeks…
  NOEL: 1.56 mg/kg-day
Rattus norvegicus [3]; chronic, duration: 104 weeks, diet, M, Crl:CD(SD) BR, blood: lymphocytes + blood: segmented neutrophils
  LOEL: 0.039 mg/kg-day
Rattus norvegicus [3]; chronic, duration: 104 weeks, diet, M, Crl:CD(SD) BR, spleen: spleen: absolute weight (53 weeks) + spleen: spleen: relative weight (53 weeks)
  LOEL: 1.56 mg/kg-day
Rattus norvegicus [3]; [5]
  LOEL: 0.6 mg/kg-day
  NOEL: 0.1 mg/kg-day
Rattus norvegicus [3]; reproduction developmental, gavage, M/F, Sprague-Dawley, generation: F1, F1: IL-1beta mRNA level relative change: hippocampus (PND 0) + F1: TNFalpha mRNA level relative change: hippocampus (PND 0)
  LOEL: 0.1 mg/kg-day
Rattus norvegicus [3]; [6]
  LOEL: 2 mg/kg-day
  NOEL: 0.6 mg/kg-day
Rattus norvegicus [3]; short-term, duration: 28 days, diet, F, Sprague-Dawley, blood: blood CD3+ cells + blood: blood CD3+CD4+ cells + blood: blood CD3+CD8+ cells + blood: blood CD45RA+ cells + IgG antibody titer (KLH…
  NOEL: 100 ppm
Rattus norvegicus [3]; [7]
  LOEL: 100 ppm
  NOEL: 50 ppm
Rattus norvegicus [3]; short-term, duration: 28 days, diet, M, Sprague-Dawley, Total serum IgG1 level
  LOEL: 2 ppm
Rattus norvegicus [3]; short-term, duration: 28 days, diet, M, Sprague-Dawley, blood CD3+ cells + blood: blood CD3+ cells + blood: blood CD3+CD4+ cells + blood: blood CD3+CD8+ cells + blood: blood CD45RA+ cells + IgG …
  NOEL: 100 ppm
Rattus norvegicus [3]; [8]
  LOEL: 100 ppm
  NOEL: 50 ppm
Rattus norvegicus [3]; [9]
  LOEL: 50 ppm
  NOEL: 20 ppm
Monkey; chronic, duration: 26 weeks, F, lymphocyte count (Day 182) + lymphocyte count (LYMPH) (Day 182) + segmented neutrophil count (Day 182) + segmented neutrophil count (N-SEG…
  NOEL (TAD): 115 mg/kg-day
Monkey; [10]
  LOEL (TAD): 115 mg/kg-day
  NOEL (TAD): 22.9 mg/kg-day
Monkey; chronic, duration: 26 weeks, M, lymphocyte count (LYMPH) (Day 182) + segmented neutrophil count (%) (Day 182) + segmented neutrophil count (N-SEG) (Day 182)
  NOEL (TAD): 115 mg/kg-day
Monkey; F
  NOEL: 2 mg/kg-day
Monkey; M
  NOEL: 2 mg/kg-day
Labeo boga; short-term, duration: 7 day, Oryzias Melastigma, mRNA level for C8 gene + mRNA level for CAT gene + mRNA level for CCL20 gene + mRNA level for Cd3 gene + mRNA level for GPx gene
  NOEL: 1 mg/L
Labeo boga; short-term, duration: 7 day, Oryzias Melastigma, mRNA level for IL1b gene
  LOEL: 0.25 mg/L
Labeo boga; short-term, duration: 10 day, Medaka, relative IL-1-beta mRNA expression + relative IL-8 mRNA expression + relative TNF-alpha mRNA expression
  LOEL: 1 mg/L
Labeo boga; short-term, duration: 16 day, Thicklip grey mullet, relative apoA1 expression in liver (Day 2) + relative cc3 expression in liver (Day 16) + relative cc3 expression in liver (Day 2) + relative…
  NOEL: 2 ppm
Labeo boga; short-term, duration: 16 day, Thicklip grey mullet, relative apoA1 expression in liver (Day 16) + relative fabp expression in liver (Day 2)
  LOEL: 2 ppm
Labeo boga; short-term, duration: 21 day, Atlantic Salmon, cortisol
  LOEL: 0.1 mg/L
Labeo boga; subchronic, duration: 48 day, Atlantic Salmon, cortisol
  LOEL: 0.1 mg/L
Labeo boga; subchronic, duration: 48 day, Atlantic Salmon, fresh weight + length + thymus: thymus somatic index + thymus: thymus volume
  NOEL: 0.1 mg/L
Labeo boga; subchronic, duration: 56 day, Atlantic Salmon, cortisol
  LOEL: 0.1 mg/L

## Cc1cccc(Nc2cc(Cl)nc(SCC(=O)O)n2)c1C [[4-Chloro-6-(2,3-xylidino)-2-pyrimidinylthio]acetic acid]
Rattus norvegicus [1]; M, Fischer 344, Body Weight Changes: decrease + Blood Chemistry: Alp increase, Bile acid increase, ALT increase, SDH increase + Absolute Organ Weight: Liver…
  NOEL: < 0.48 mg/kg-day
